Results taken from patent publication US8263643B2, “Polyphenol compounds with modulating neurotransmitter release” (Sungkyunkwan University Foundation for Corporate …, priority 2007, dated 2012).
Where two headings read alike, the source gives them in different places. Marks after values point to notes of the source that are not given here.

How the values were obtained:
[1] = target: T1, SNARE complex (SNAP25, SynH3, Vps) (UniProt P60879+P63045+Q16623); assay: SDS-PAGE analysis of SNARE complex formation; format: biochemical; details: for SNARE complex formation (%): control = 100, footnote: [phenolic compound]:SNAP-25 = 1:1, SNARE proteins 10 μM each, polyphenol 100 μM, room temperature 30 min
T1 construct: SynH3 (AF217197); Vps (NM012663); made in house; host or cells: E. coli (Codon (+) RIL, Novagen)
Protocol: A SNARE complex is strong enough so as not to be untwisted by SDS. On the basis of such a property, a SDS-PAGE analysis was performed in order to determine the formation of a SNARE complex. Polyphenol compounds used in the present Example were purchased from Sigma-Aldrich, Wako Chemical, and Extrasynthese.
In order to produce SNARE proteins, SNARE proteins, such as, SNAP25 (NM011428), syntaxin 1A (AF217197), VAMP2 (NM012663), SynH3 (AF217197), and Vps (NM012663), were purified in biologically transformed E. coli (Codon (+) RIL, Novagen).
Then, the materials were quickly mixed by a vortex, and were reacted at room temperature for 30 minutes. […]

[2] = target: T2, membrane fusion caused by SNARE (SNAP25, syntaxin 1A, VAMP2) (UniProt P60879+P63045+Q16623); assay: Membrane fusion assay with SNARE-reconstituted liposomes (fluorescence); format: biochemical; details: for remaining activity at 20 µM: read-out: Membrane fusion caused by SNARE (% of fusion without inhibitor)
T2 construct: made in house; host or cells: E. coli (Codon (+) RIL, Novagen)
Protocol: In order to produce SNARE proteins, SNARE proteins, such as SNAP25 (NM011428), syntaxin 1A (AF217197), and VAMP2 (NM012663), were purified in biologically transformed E. coli (Codon (+) RIL, Novagen).
In order to prepare liposome (fine membrane) marked with a fluorescent substance, POPC (62 mol %), DOPS (35 mol %), NBD-PS (1.5 mol %) and a fluorescent substance Rhodamin-PE (1.5 mol %) were mixed to obtain 10 mM of liposome (v-vesicle). Also, in order to prepare a liposome not marked with a fluorescent substance, DOPS and POPC were mixed in a molar concentration ratio of 35:65 to obtain 50 mM of liposome (t-vesicle). In order to prepare a complex of the purified SNAP25 and syntaxin 1a, the SNAP25 and the syntaxin 1a were mixed in a molar concentration ratio of 1:1, and then were reacted at room temperature for 1 hour. Then, the resultant mixture and the liposome not marked with a fluorescent substance were mixed in a molar ratio of 100:1. The VAMP2 and the liposome marked with a fluorescent substance were mixed in a molar ratio of 50:1. Then, each of the two kinds of liposomes was dialyzed by using 10 kDa dialyzing membrane through agitation at 4° C. for 24 hours, and the liposomes were mixed in a ratio of 3:7 (v-vesicle t-visicle). Next, fluorescence was measured by using a fluorometer (SpectraMax M2 manufactured by Molecular Device).
Herein, 100% indicates the degree of membrane fusion in the state where no inhibitor was added. As the value is smaller, the inhibiting degree is higher.

[3] = 20 μM phenolic compound, 100% = no inhibitor added
[4] = molar concentration ratio phenolic compound:SNAP-25, average of at least three measurements

T1 sequence (P60879 whole entry): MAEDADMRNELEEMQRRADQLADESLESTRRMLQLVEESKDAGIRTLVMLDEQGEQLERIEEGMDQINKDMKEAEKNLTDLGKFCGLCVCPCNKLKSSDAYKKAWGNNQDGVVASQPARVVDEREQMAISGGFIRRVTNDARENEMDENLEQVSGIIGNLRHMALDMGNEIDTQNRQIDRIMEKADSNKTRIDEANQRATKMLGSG
T1 sequence (Q16623 192-254 limits assumed): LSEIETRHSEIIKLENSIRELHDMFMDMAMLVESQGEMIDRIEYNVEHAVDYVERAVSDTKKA
T1 sequence (P63045 2-94 limits assumed): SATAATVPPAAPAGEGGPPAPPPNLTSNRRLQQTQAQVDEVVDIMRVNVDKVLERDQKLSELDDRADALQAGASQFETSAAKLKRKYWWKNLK
T2 sequence (P60879 whole entry, the tested form may be a part): as the sequence (P60879 whole entry) above
T2 sequence (Q16623 whole entry, the tested form may be a part): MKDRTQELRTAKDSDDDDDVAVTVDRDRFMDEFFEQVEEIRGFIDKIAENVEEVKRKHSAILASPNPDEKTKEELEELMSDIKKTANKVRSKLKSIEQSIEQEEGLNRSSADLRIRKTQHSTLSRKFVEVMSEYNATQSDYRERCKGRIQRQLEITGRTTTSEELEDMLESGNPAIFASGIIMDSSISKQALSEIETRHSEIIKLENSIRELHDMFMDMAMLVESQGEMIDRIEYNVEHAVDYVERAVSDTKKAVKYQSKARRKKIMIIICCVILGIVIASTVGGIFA
T2 sequence (P63045 whole entry, the tested form may be a part): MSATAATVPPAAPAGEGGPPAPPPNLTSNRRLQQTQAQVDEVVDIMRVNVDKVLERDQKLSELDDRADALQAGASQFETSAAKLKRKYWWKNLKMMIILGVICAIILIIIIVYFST

| Structure (SMILES) | SNARE complex formation (%) [1] [%] | remaining activity at 20 µM [2, 3] [%] | also measured |
| --- | --- | --- | --- |
| O=c1cc(-c2ccc(O)cc2)oc2cc(O)cc(O)c12 [Apigenin] | 96.94 ± 7.99 | 96.9 ± 7.99 | – |
| COc1ccc([C@@H]2CC(=O)c3c(O)cc(O[C@@H]4O[C@H](CO[C@@H]5O[C@@H](C)[C@H](O)[C@@H](O)[C@H]5O)[C@@H](O)[C@H](O)[C@H]4O)cc3O2)cc1O [Hesperidin] | 112.38 ± 10.43 | – | Membrane fusion caused by SNARE (% of fusion without inhibitor) [2, 3]: 124.11 ± 15.01% |
| Oc1cc(O)c2c(c1)O[C@H](c1ccc(O)c(O)c1)[C@@H](O)C2 [(+)-Catechin] | 105.02 ± 11.37 | – | Membrane fusion caused by SNARE (% of fusion without inhibitor) [2, 3]: 89.15 ± 1.19% |
| O=c1c(O)c(-c2ccc(O)cc2)oc2cc(O)cc(O)c12 [Kaempferol] | 100.13 ± 7.16 | 108 ± 5 | Inhibition of SNARE complex formation (in words) ([1]; FIG. 2, concentration series): inhibit the formation of a SNARE complex by 50% at a low concentration; Ratio for inhibition by 50% (IR50), SNARE complex formation [1, 4]: >60^b; Reduction of membrane fusion (in words) ([2]; FIG. 3): can reduce membrane fusion; Ratio for inhibition by 50% (IR50), membrane fusion [2, 4]: >20^b |
| COc1cc(C(=O)O)ccc1O [Vanillic acid] | 97.23 ± 5.70 | 99.6 ± 7.63 | – |
| O=C(O)/C=C/c1ccc(O)c(O)c1 [Caffeic acid] | 93.33 ± 12.20 | 125 ± 7.45 | – |
| O=C(/C=C/c1ccc(O)c(O)c1)O[C@@H]1C[C@](O)(C(=O)O)C[C@@H](O)[C@H]1O [Chlorogenic acid] | 100.78 ± 13.62 | 134 ± 1.49 | – |
| COc1cc(C(=O)O)cc(OC)c1O [Syringic acid] | 92.25 ± 5.92 | 78.2 ± 2.47 | – |
| C[C@@H]1O[C@@H](O[C@H]2[C@H](Oc3cc(O)c4c(c3)O[C@H](c3ccc(O)cc3)CC4=O)O[C@H](CO)[C@@H](O)[C@@H]2O)[C@H](O)[C@H](O)[C@H]1O [Naringin] | 105.02 ± 11.37 | 107 ± 2.89 | – |
| Oc1ccc(-c2[o+]c3cc(O)cc(O)c3cc2O)cc1 [Pelargonidin] | 95.61 ± 3.10 | 92.4 ± 3.38 | – |
| O=c1c(-c2ccc(O)cc2)coc2cc(O)cc(O)c12 [Genistein] | 96.76 ± 8.91 | 119 ± 18.1 | – |
| COc1cc(-c2[o+]c3cc(O)cc(O)c3cc2O)cc(OC)c1O [Malvidin] | 97.42 ± 6.31 | – | remaining activity at 20 µM [2]: 116 ± 5.97% |
| COc1ccc([C@@H]2CC(=O)c3c(O)cc(O)cc3O2)cc1O [Hesperetin] | 114.55 ± 5.00 | 107 ± 2.29 | – |
| COc1cc2c(c(OC)c1OC)-c1c(cc3c(c1OC)OCO3)C[C@H](C)[C@](C)(O)C2 [Gomisin A] | 97.99 ± 0.87 | – | Membrane fusion caused by SNARE (% of fusion without inhibitor) [2, 3]: 79.63 ± 7.58% |
| O=C(O)/C=C/c1ccccc1 [Trans-cinnamic acid] | 106.78 ± 30.15 | 108 ± 10.6 | – |
| Oc1cc(O)c2cc(O)c(-c3cc(O)c(O)c(O)c3)[o+]c2c1 [Delphinidin] | 60.53 ± 18.88 | 37.5 ± 3.45 | – |
| C[C@@H]1O[C@@H](Oc2c(-c3ccc(O)c(O)c3)oc3cc(O)cc(O)c3c2=O)[C@H](O)[C@H](O)[C@H]1O [Quercitrin] | 92.18 ± 9.59 | 86 ± 26.1 | – |
